In brackets after ≈: the same amount, converted by molar mass. Where two headings read alike, the source gives them in different places.
What was measured:
[1] = system: Bifidobacterium breve (ATCC 15700); assay: microbe, parasite or virus in culture; conditions: ATCC15700, read-out: MIC B. breve
Staphylococcus aureus = assay: MIC assay against Staphylococcus aureus; format: cell-based; conditions: Staphylococcus aureus, ATCC700699, read-out: MIC S. aureus ATCC 700699
[2] = system: Clostridium scindens (ATCC 35704); assay: microbe, parasite or virus in culture; conditions: ATCC35704, read-out: MIC C. scindens
[3] = system: Clostridium difficile UNT103-1; assay: Ileal cannulated Syrian hamster C. difficile infection model; format: in vivo, Golden Syrian hamsters
Experimental: Following ileal cannulation surgery and recovery, male Golden Syrian hamsters were inoculated with Clostridium difficile UNT103-1 (VA11, non epidemic (cdtB-, REA group J) Curtis Donskey, Cleveland VA Hospital, Cleveland, Ohio). On Day 1, at 24 hrs after infection, all animals received a single subcutaneous injection of clindamycin (10 mg/kg). Test article formulations were administered three times per day (TID), starting on Day 2 at 18 hours after Clindamycin injection, for 5 consecutive days (Days 2 through 6). Vancomycin (positive control) was administered once a day at 20 mg/kg on Days 2 through 6, and followed until Day 22 to assess recurrence. The cecal contents from all hamsters that died on study or euthanized at the end ([…]) were tested for C. difficile Toxin A and Toxin B (tgc BIOMICS ELISA Kit, cat# TGC-E002-1) and for C. difficile Spore counts. Spore titer was determined by incubating the cecal contents in 50% final concentration of ethanol for 60 minutes at room temperature, centrifuging and resuspending the pellet in nano-pure water. The resuspension is incubated at 65° C. for 15 minutes, centrifuged again and the pellet resuspended again in nano-pure water. […] After 48 hours of anaerobic incubation, spore counts are determined as colony forming units (CFUs).

Clostridium difficile = assay: C. difficile MIC assay (broth dilution); format: cell-based; conditions: Clostridioides difficile
Experimental: A minimum inhibitory concentration (MIC) assessment was performed using the anaerobic human gastrointestinal pathogen Clostridium difficile. A modification of the CLSI M11-A8 broth dilution method for Bacteroides fragilis susceptibility testing was used for C. difficile. (Methods for Dilution In Antimicrobial Susceptibility Tests for Bacteria That Grow Aerobically; Approved Standard-Eighth Edition. CLSI document M07-A8 (ISBN 1-56238-689-1). Vol. 29 No. 2. Clinical and Laboratory Standards Institute, USA, 2009). […] C. difficile was streaked and incubated on blood agar plates under anaerobic conditions. […] A 4 μL aliquot of each dilution was added to 196 μL of Reinforced Clostridial Medium (RCM), with test strains in wells of a 96 well plate. The final volume was 200 μL in each well.
Multisite variants were subsequently tested for specific antimicrobial activity in a C. difficile MIC assay (Table 10) (Methods for Antimicrobial Susceptibility Testing of Anaerobic Bacteria Approved Standard-Seventh Edition. CLSI document M11-A8 (ISBN 1-56238-790-1). Vol. 32 No. 5. Clinical and Laboratory Standards Institute, USA, 2012).

[4] = system: Clostridium difficile UNT103-1; assay: Non-cannulated Syrian hamster C. difficile infection model, oral gavage; format: in vivo, Golden Syrian hamsters
Experimental: (§1) Following the recovery phase, male Golden Syrian hamsters were inoculated with Clostridium difficile UNT103-1 (VA11, non epidemic (cdtB-, REA group J) Curtis Donskey, Cleveland VA Hospital, Cleveland, Ohio). On Day 1, at 24 hrs after infection, all animals received a single subcutaneous injection of clindamycin (10 mg/kg). Test article formulations were administered three times per day (TID), starting on Day 2 at 18 hours after Clindamycin injection, for 5 consecutive days (Days 2 through 6), and followed until Day 22 to assess recurrence. Vancomycin (positive control) was administered once a day at 20 mg/kg on Days 2 through 6. Cecal spore counts and Toxins A and B were determined as described above

[5] = system: Lactobacillus acidophilus (CCUG 4356); assay: microbe, parasite or virus in culture; conditions: CCUG4356, read-out: MIC L. acidophilus
[6] = system: Peptostreptococcus anaerobius (ATCC 27337); assay: microbe, parasite or virus in culture; conditions: ATCC27337, read-out: MIC P. anaerobius
[7] = system: Mycobacterium phlei (ATCC 11758); assay: MIC assay against Mycobacterium phlei (acid-fast); format: cell-based; conditions: Mycolicibacterium phlei, ATCC11758; acid-fast microorganism; single site variants
[8] = system: Clostridium difficile UNT103-1; assay: Second non-cannulated Syrian hamster C. difficile infection model, oral gavage dose range-finding; format: in vivo, Golden Syrian hamsters
Experimental: as §1, with “formulated at 3 to 5 different doses” for “formulations”, “above.” for “above”

[9] = vancomycin control, 20 mg/kg once a day

## CN[C@H](CC(C)C)C(=O)N[C@H]1C(=O)N[C@@H](CC(N)=O)C(=O)N[C@H]2C(=O)N[C@H]3C(=O)N[C@H](C(=O)N[C@H](C(=O)O)c4cc(O)cc(O)c4-c4cc3ccc4O)[C@H](O)c3ccc(c(Cl)c3)Oc3cc2cc(c3O[C@@H]2O[C@H](CO)[C@@H](O)[C@H](O)[C@H]2O[C@H]2C[C@](C)(N)[C@H](O)[C@H](C)O2)Oc2ccc(cc2Cl)[C@H]1O [Vancomycin]
[1]
  MIC: 0.5 µg/mL (≈ 0.345 µM)
Staphylococcus aureus
  MIC: 2 µg/mL (≈ 1.38 µM)
[2]
  MIC: 1 µg/mL (≈ 0.69 µM)
[3]; hamster, in vivo
  Mean LOG10 CFU/mL of feces homogenates (cecal spore counts) at Day-22: 3.24 LOG10 CFU/mL
[3]; ileal cannulated hamsters, test articles TID Days 2-6, vancomycin 20 mg/kg once a day
  Percent Survival at Day-22: 33%
Clostridium difficile; ATCC9689, strain ATCC 9689, first value of cell (first of two independent tests), read-out: C. difficile MIC ATCC 9689
  MIC: 4 µg/mL (≈ 2.76 µM)
Clostridium difficile; ATCC9689, strain ATCC 9689, multi-site variants, read-out: C. difficile MIC ATCC 9689
  MIC: 0.5 µg/mL (≈ 0.345 µM)
Clostridium difficile; ATCC9689, strain ATCC 9689, second value of cell (second independent test), read-out: C. difficile MIC ATCC 9689
  MIC: 8 µg/mL (≈ 5.52 µM)
Clostridium difficile; ATCC43255, strain ATCC 43255, read-out: C. difficile MIC ATCC 43255
  MIC: 1 µg/mL (≈ 0.69 µM)
Clostridium difficile; ATCC43596, strain ATCC 43596, read-out: C. difficile MIC ATCC 43596
  MIC: 1 µg/mL (≈ 0.69 µM)
Clostridium difficile; ATCC43597, strain ATCC 43597, read-out: C. difficile MIC ATCC 43597
  MIC: 0.5 µg/mL (≈ 0.345 µM)
Clostridium difficile; ATCC70057, read-out: C. difficile MIC ATCC 70057, strain ATCC 70057, first value of cell (first of two independent tests)
  MIC: 0.5 µg/mL (≈ 0.345 µM)
Clostridium difficile; ATCC70057, strain ATCC 70057, second value of cell (second independent test), read-out: C. difficile MIC ATCC 70057
  MIC: 1 µg/mL (≈ 0.69 µM)
Clostridium difficile; ATCCBAA1805, strain ATCC BAA-1805, multi-site variants, read-out: C. difficile MIC ATCC BAA-1805
  MIC: 1 µg/mL (≈ 0.69 µM)
Clostridium difficile; ATCCBAA1808, strain ATCC BAA-1808, read-out: C. difficile MIC ATCC BAA-1808
  MIC: 0.5 µg/mL (≈ 0.345 µM)
Clostridium difficile; ATCCBAA1874, strain ATCC BAA-1874, read-out: C. difficile MIC ATCC BAA-1874
  MIC: 0.5 µg/mL (≈ 0.345 µM)
Clostridium difficile; ATCCBAA1875, strain ATCC BAA-1875, multi-site variants, read-out: C. difficile MIC ATCC BAA-1875
  MIC: 0.5 µg/mL (≈ 0.345 µM)
Clostridium difficile; BAA1805, strain BAA-1805, single site variants, read-out: C. difficile MIC BAA-1805
  MIC: 1 µg/mL (≈ 0.69 µM)
Clostridium difficile; BAA1875, strain BAA-1875, single site variants, read-out: C. difficile MIC BAA-1875
  MIC: 1 µg/mL (≈ 0.69 µM)
Clostridium difficile; strain 103-1 (UNT103-1), read-out: C. difficile MIC 103-1
  MIC: 1 µg/mL (≈ 0.69 µM)
Clostridium difficile; strain 107-1 (UNT107-1), read-out: C. difficile MIC 107-1
  MIC: 4 µg/mL (≈ 2.76 µM)
Clostridium difficile; strain BI1, read-out: C. difficile MIC BI1
  MIC: 8 µg/mL (≈ 5.52 µM)
[4]; hamster, in vivo, po
  Mean LOG10 CFU/mL of feces homogenates (cecal spore counts) at Day-22: 2.96 LOG10 CFU/mL
[4]; oral gavage TID Days 2-6, vancomycin 20 mg/kg once a day
  Percent Survival at Day-22: 83%
[4]; oral gavage, first value of A/B cell, limit of detection 0.8
  Toxin A level at Day-22: 84.2 ng/mL
[4]; oral gavage, second value of A/B cell, limit of detection 0.8
  Toxin B level at Day-22: 8 ng/mL
[5]
  MIC: 1 µg/mL (≈ 0.69 µM)
[6]
  MIC: 1 µg/mL (≈ 0.69 µM)
[7]
  MIC: 0.25 µg/mL (≈ 0.173 µM)
[8]; hamster, in vivo, 20 mg/kg
  Mean LOG10 CFU/mL of feces homogenates (cecal spore counts) at Day-22: 6.66 LOG10 CFU/mL
  Percent Survival at Day-22: 50%
[8]; [9]
  Toxin A level at Day-22: 292.6 ng/mL
  Toxin B level at Day-22: 71.1 ng/mL

— patent US20190315814A1, “LANTIBIOTIC VARIANTS AND USES THEREOF” (priority 2016, published 2019)
